Data published in patent publication US9617256B2 (priority 2007, dated 2017).
In brackets after ≈: the same amount, converted by molar mass.

Legend:
[1] = system: APAE006 (strain of P. aeruginosa in which all efflux pumps are inactivated); experiment: microbe, parasite or virus in culture; assay type: cell-based; details: Pseudomonas aeruginosa, read-out: MIC APAE006, P. aeruginosa, all efflux pumps inactivated
Method in brief: (§1)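 CLSI broth microdilution in cation-adjusted Mueller-Hinton broth, final inoculum 3×10^5–7×10^5 CFU/mL, 2-fold drug dilutions, 18-24 hours at 35° C. in ambient air. APAE006 is an efflux-pump-inactivated P. aeruginosa strain. Assay performance monitored with QC strains and levofloxacin.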

APAE001 (ATCC27853) = experiment: MIC broth microdilution, APAE001; assay type: cell-based, P. aeruginosa; details: Pseudomonas aeruginosa, ATCC27853, read-out: MIC APAE001, APAE001 is ATCC27853
Method in brief: (§2)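 Minimum inhibitory concentrations followed CLSI broth microdilution guidelines: cation-adjusted Mueller-Hinton broth, 2-fold serial drug dilutions, final inoculum 3×10^5–7×10^5 CFU/mL, ambient air at 35° C. for 18-24 hours. Quality-control strains and levofloxacin monitored performance.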

AECO001 (ATCC25922) = experiment: MIC broth microdilution, AECO001; assay type: cell-based, E. coli; details: Escherichia coli, ATCC25922, read-out: MIC AECO001
Method in brief: as §2

[2] = system: AECO063 (ATCC25922 bearing an acrAB mutation); experiment: microbe, parasite or virus in culture; assay type: cell-based, E. coli; details: Escherichia coli, ATCC25922, read-out: MIC AECO063
Method in brief: as §2

[3] = system: AABA1060 (clinical isolate of Acinetobacter baumannii); experiment: MIC broth microdilution, AABA1060; assay type: cell-based; details: Acinetobacter baumannii, read-out: MIC AABA1060
Method in brief: as §2

AECO001 HSA AGP = experiment: MIC broth microdilution, AECO001 HSA AGP; assay type: cell-based, E. coli; details: Escherichia coli
Method in brief: as §2

[4] = system: ASAU001 (laboratory strain of S. aureus, ATCC29213); experiment: MIC broth microdilution, ASAU001; assay type: cell-based; details: Staphylococcus aureus, ATCC29213, read-out: MIC ASAU001
Method in brief: as §2

[5] = system: APAE006 in the presence of 8 micrograms per milliliter of polymyxin B nonapeptide; assay type: cell-based, P. aeruginosa; details: in the presence of 8 micrograms per milliliter of polymyxin B nonapeptide
Method in brief: as §1

**Q.** What does the source list for `C[C@@H](N)[C@H](NC(=O)c1ccc(/C=C/C#Cc2ccc(OC(F)(F)F)cc2)cc1)C(=O)NO` [Example 114-7]?
**A.** MIC [1]: 2 to 16 µg/mL (≈ 4.47 to 35.8 µM); MIC (APAE001 (ATCC27853)): 2 to 16 µg/mL (≈ 4.47 to 35.8 µM); MIC (AECO001 (ATCC25922)): 2 to 16 µg/mL (≈ 4.47 to 35.8 µM); MIC [2]: < 2 µg/mL; MIC [3]: 2 to 16 µg/mL (≈ 4.47 to 35.8 µM); MIC (AECO001 HSA AGP): 2 to 16 µg/mL (≈ 4.47 to 35.8 µM); MIC [4]: 2 to 16 µg/mL (≈ 4.47 to 35.8 µM); MIC APAE006 + PMBN [5]: A (MIC's of 2.0 μg/mL or less = A)

**Q.** Which results are given for `C[C@@H](N)[C@H](NC(=O)c1ccc(/C=C/C#Cc2ccncc2)cc1)C(=O)NO` [Example 114-8]?
**A.** MIC [1]: < 2 µg/mL; MIC (APAE001 (ATCC27853)): < 2 µg/mL; MIC (AECO001 (ATCC25922)): < 2 µg/mL; MIC [2]: < 2 µg/mL; MIC [3]: 2 to 16 µg/mL (≈ 5.49 to 43.9 µM); MIC (AECO001 HSA AGP): 2 to 16 µg/mL (≈ 5.49 to 43.9 µM); MIC [4]: 16 to 64 µg/mL (≈ 43.9 to 176 µM); MIC APAE006 + PMBN [5]: A (MIC's of 2.0 μg/mL or less = A)

**Q.** What does the source list for `C[C@@H](N)[C@H](NC(=O)c1ccc(/C=C/C#Cc2cccnc2)cc1)C(=O)NO` [Example 114-9]?
**A.** MIC [1]: < 2 µg/mL; MIC (APAE001 (ATCC27853)): < 2 µg/mL; MIC (AECO001 (ATCC25922)): 2 to 16 µg/mL (≈ 5.49 to 43.9 µM); MIC [2]: < 2 µg/mL; MIC [3]: 2 to 16 µg/mL (≈ 5.49 to 43.9 µM); MIC (AECO001 HSA AGP): 2 to 16 µg/mL (≈ 5.49 to 43.9 µM); MIC [4]: 16 to 64 µg/mL (≈ 43.9 to 176 µM); MIC APAE006 + PMBN [5]: A (MIC's of 2.0 μg/mL or less = A)

**Q.** Which results are given for `C[C@@H](N)[C@H](NC(=O)c1ccc(/C=C/C#Cc2ccc(Cl)cc2)cc1)C(=O)NO` [Example 114-10]?
**A.** MIC [1]: < 2 µg/mL; MIC (APAE001 (ATCC27853)): 2 to 16 µg/mL (≈ 5.03 to 40.2 µM); MIC (AECO001 (ATCC25922)): < 2 µg/mL; MIC [2]: < 2 µg/mL; MIC [3]: 2 to 16 µg/mL (≈ 5.03 to 40.2 µM); MIC (AECO001 HSA AGP): 2 to 16 µg/mL (≈ 5.03 to 40.2 µM); MIC [4]: 16 to 64 µg/mL (≈ 40.2 to 161 µM); MIC APAE006 + PMBN [5]: A (MIC's of 2.0 μg/mL or less = A)

**Q.** Which results are given for `C[C@@H](N)[C@H](NC(=O)c1ccc(C#Cc2ccc(CNC3CC3)cc2)cc1)C(=O)NO` [Example 115-2]?
**A.** MIC [1]: < 2 µg/mL; MIC (APAE001 (ATCC27853)): < 2 µg/mL; MIC (AECO001 (ATCC25922)): < 2 µg/mL; MIC [2]: < 2 µg/mL; MIC [3]: 2 to 16 µg/mL (≈ 4.92 to 39.4 µM); MIC (AECO001 HSA AGP): 2 to 16 µg/mL (≈ 4.92 to 39.4 µM); MIC [4]: > 64 µg/mL; MIC APAE006 + PMBN [5]: A (MIC's of 2.0 μg/mL or less = A)

**Q.** Which results are given for `C[C@@H](N)[C@H](NC(=O)c1ccc(C#Cc2ccc(CN3CCC(F)(F)CC3)cc2)cc1)C(=O)NO` [Example 115-3]?
**A.** MIC [1]: < 2 µg/mL; MIC (APAE001 (ATCC27853)): 2 to 16 µg/mL (≈ 4.25 to 34 µM); MIC (AECO001 (ATCC25922)): < 2 µg/mL; MIC [2]: < 2 µg/mL; MIC [3]: 2 to 16 µg/mL (≈ 4.25 to 34 µM); MIC (AECO001 HSA AGP): < 2 µg/mL; MIC [4]: > 64 µg/mL; MIC APAE006 + PMBN [5]: A (MIC's of 2.0 μg/mL or less = A)

**Q.** With `C[C@@H](N)[C@H](NC(=O)c1ccc(C#Cc2ccc(CN3CCN(C)CC3)cc2)cc1)C(=O)NO` [Example 115-4] as the compound, how does the MIC [1] read?
**A.** < 2 µg/mL

**Q.** What about the MIC (APAE001 (ATCC27853)) of the same compound?
**A.** < 2 µg/mL

**Q.** And the MIC (AECO001 (ATCC25922))?
**A.** 2 to 16 µg/mL (≈ 4.45 to 35.6 µM)

**Q.** And the MIC [2]?
**A.** < 2 µg/mL

**Q.** And the MIC [3]?
**A.** 16 to 64 µg/mL (≈ 35.6 to 142 µM)

**Q.** What about the MIC (AECO001 HSA AGP) of the same compound?
**A.** 16 to 64 µg/mL (≈ 35.6 to 142 µM)

**Q.** What about the MIC [4] of the same compound?
**A.** > 64 µg/mL

**Q.** And the “MIC APAE006 + PMBN” value [5]?
**A.** A (MIC's of 2.0 μg/mL or less = A)

**Q.** `C[C@@H](N)[C@H](NC(=O)c1ccc(C#Cc2ccc(CN(C)Cc3cccnc3)cc2)cc1)C(=O)NO` [Example 115-5] was tested. Which MIC [1] did it give?
**A.** < 2 µg/mL

**Q.** And the MIC (APAE001 (ATCC27853))?
**A.** 2 to 16 µg/mL (≈ 4.24 to 33.9 µM)

**Q.** And the MIC (AECO001 (ATCC25922))?
**A.** < 2 µg/mL

**Q.** And the MIC [2]?
**A.** < 2 µg/mL

**Q.** What about the MIC [3] of the same compound?
**A.** 2 to 16 µg/mL (≈ 4.24 to 33.9 µM)

**Q.** What about the MIC (AECO001 HSA AGP) of the same compound?
**A.** 2 to 16 µg/mL (≈ 4.24 to 33.9 µM)

**Q.** And the MIC [4]?
**A.** > 64 µg/mL

**Q.** And the “MIC APAE006 + PMBN” value [5]?
**A.** A (MIC's of 2.0 μg/mL or less = A)

**Q.** Which MIC [1] does the source give for `C[C@@H](N)[C@H](NC(=O)c1ccc(C#Cc2ccc(CN3CCC(O)C3)cc2)cc1)C(=O)NO` (stereo partly drawn) [Example 115-6] here?
**A.** < 2 µg/mL

**Q.** And the MIC (APAE001 (ATCC27853))?
**A.** < 2 µg/mL

**Q.** What about the MIC (AECO001 (ATCC25922)) of the same compound?
**A.** 2 to 16 µg/mL (≈ 4.58 to 36.7 µM)

**Q.** What about the MIC [2] of the same compound?
**A.** < 2 µg/mL

**Q.** And the MIC [3]?
**A.** 16 to 64 µg/mL (≈ 36.7 to 147 µM)

**Q.** And the MIC (AECO001 HSA AGP)?
**A.** 2 to 16 µg/mL (≈ 4.58 to 36.7 µM)

**Q.** And the MIC [4]?
**A.** > 64 µg/mL

**Q.** And the “MIC APAE006 + PMBN” value [5]?
**A.** A (MIC's of 2.0 μg/mL or less = A)

**Q.** What does the source list for `C[C@@H](N)[C@H](NC(=O)c1ccc(C#Cc2ccc(CN3CCN(S(C)(=O)=O)CC3)cc2)cc1)C(=O)NO` [Example 115-7]?
**A.** MIC [1]: < 2 µg/mL; MIC (APAE001 (ATCC27853)): 2 to 16 µg/mL (≈ 3.89 to 31.2 µM); MIC (AECO001 (ATCC25922)): < 2 µg/mL; MIC [2]: < 2 µg/mL; MIC [3]: 2 to 16 µg/mL (≈ 3.89 to 31.2 µM); MIC (AECO001 HSA AGP): 2 to 16 µg/mL (≈ 3.89 to 31.2 µM); MIC [4]: > 64 µg/mL; MIC APAE006 + PMBN [5]: A (MIC's of 2.0 μg/mL or less = A)

**Q.** What does the source list for `COC1CCN(Cc2ccc(C#Cc3ccc(C(=O)N[C@H](C(=O)NO)[C@@H](C)N)cc3)cc2)CC1` [Example 115-8]?
**A.** MIC [1]: < 2 µg/mL; MIC (APAE001 (ATCC27853)): < 2 µg/mL; MIC (AECO001 (ATCC25922)): < 2 µg/mL; MIC [2]: < 2 µg/mL; MIC [3]: 2 to 16 µg/mL (≈ 4.31 to 34.4 µM); MIC (AECO001 HSA AGP): 2 to 16 µg/mL (≈ 4.31 to 34.4 µM); MIC [4]: > 64 µg/mL; MIC APAE006 + PMBN [5]: A (MIC's of 2.0 μg/mL or less = A)

**Q.** How did the MIC [1] turn out when `NCC(=O)NCc1ccc(C#Cc2ccc(C(=O)N[C@@H](CN)C(=O)NO)cc2)cc1` [Example 116-1, (S)—N-(3-amino-1-(hydroxyamino)-1-oxopropan-2-yl)-4-((4-((2-aminoacetamido)methyl)phenyl)ethynyl)benzamide] was run?
**A.** < 2 µg/mL

**Q.** What about the MIC (APAE001 (ATCC27853)) of the same compound?
**A.** 2 to 16 µg/mL (≈ 4.88 to 39.1 µM)

**Q.** And the MIC (AECO001 (ATCC25922))?
**A.** 16 to 64 µg/mL (≈ 39.1 to 156 µM)

**Q.** What about the MIC [2] of the same compound?
**A.** 16 to 64 µg/mL (≈ 39.1 to 156 µM)

**Q.** And the MIC [3]?
**A.** 16 to 64 µg/mL (≈ 39.1 to 156 µM)

**Q.** What about the MIC (AECO001 HSA AGP) of the same compound?
**A.** 16 to 64 µg/mL (≈ 39.1 to 156 µM)

**Q.** What about the MIC [4] of the same compound?
**A.** 16 to 64 µg/mL (≈ 39.1 to 156 µM)

**Q.** What about the “MIC APAE006 + PMBN” value [5] of the same compound?
**A.** A (MIC's of 2.0 μg/mL or less = A)
